Measured values reported in patent US10294202B2, “Pyrrolidinones as herbicides” (FMC Corporation, priority 2013, dated 2019).

Key:
barnyardgrass [1] = assay: Test A pre-/postemergence herbicide test; format: in vivo, Echinochloa crus-galli
Procedure, shortened: (§1)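 Approximately 10 days after treatment in the greenhouse, plants were compared with untreated controls and given a 0–100 visual injury rating. Applications: preemergence directed soil spray; postemergence on 2–10 cm plants at the one- to two-leaf stage.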

kochia = assay: Test A pre-/postemergence herbicide test; format: in vivo, Kochia scoparia
Procedure, shortened: as §1

ragweed = assay: Test A pre-/postemergence herbicide test; format: in vivo, Ambrosia elatior
Procedure, shortened: as §1

ryegrass, Italian = assay: Test A pre-/postemergence herbicide test; format: in vivo, Lolium multiflorum
Procedure, shortened: as §1

giant foxtail = assay: Test A pre-/postemergence herbicide test; format: in vivo, Setaria faberii
Procedure, shortened: as §1

pigweed = assay: Test A pre-/postemergence herbicide test; format: in vivo, Amaranthus retroflexus
Procedure, shortened: as §1

wheat = assay: Test A pre-/postemergence herbicide test; format: in vivo, Triticum aestivum; conditions: Postemergence
Procedure, shortened: as §1

corn = assay: Test A pre-/postemergence herbicide test; format: in vivo, Zea mays; conditions: Postemergence
Procedure, shortened: as §1

blackgrass = assay: Test A postemergence herbicide test; format: in vivo, Alopecurus myosuroides
Procedure, shortened: (§2)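 Potted in loam soil/sand blend; postemergence application at 1–2 leaf stage (2–10 cm). Greenhouse ~10 d. Visual injury vs untreated, 0–100 scale; 100 = complete control.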

galium = assay: Test A postemergence herbicide test; format: in vivo, Galium aparine
Procedure, shortened: as §2

rice = assay: Test B flooded paddy test; format: in vivo, Oryza sativa; conditions: 500 g ai/ha, Flood; scale of 0 to 100 where 0 is no effect and 100 is complete control
Procedure, shortened: (§3)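 In-water application to pots flooded 3 cm deep, plants at 2-leaf stage. Held in greenhouse 13–15 days at constant flood depth. Scored 0–100 by eye against controls.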

sedge, umbrella = assay: Test B flooded paddy test; format: in vivo, Cyperus difformis; conditions: 500 g ai/ha, Flood; scale of 0 to 100 where 0 is no effect and 100 is complete control
Procedure, shortened: as §3

ducksalad = assay: Test B flooded paddy test; format: in vivo, Heteranthera limosa; conditions: 500 g ai/ha, Flood; scale of 0 to 100 where 0 is no effect and 100 is complete control
Procedure, shortened: as §3

barnyardgrass [2] = assay: Test B flooded paddy test; format: in vivo, Echinochloa crus-galli; conditions: 500 g ai/ha, Flood; scale of 0 to 100 where 0 is no effect and 100 is complete control
Procedure, shortened: as §3

[3] = Postemergence, 125 g ai/ha, visual rating on 0 to 100 scale (0 no effect, 100 complete control), approx. 10 days
[4] = Postemergence, 500 g ai/ha, 0 to 100 scale (0 no effect, 100 complete control)
[5] = Preemergence, 125 g ai/ha, 0 to 100 scale where 0 is no effect and 100 is complete control
[6] = Preemergence, 500 g ai/ha, visual rating on 0 to 100 scale (0 no effect, 100 complete control)
[7] = 125 g ai/ha, visual rating on 0 to 100 scale (0 no effect, 100 complete control), approx. 10 days
[8] = 500 g ai/ha, 0 to 100 scale (0 no effect, 100 complete control)

Compound | Plant response rating, Barnyardgrass (barnyardgrass [1]; [3]) | Plant response rating, Barnyardgrass (barnyardgrass [1]; [4]) | Plant response rating, Barnyardgrass (barnyardgrass [1]; [5]) | Barnyardgrass plant response rating (barnyardgrass [1]; [6]) | Plant response rating, Kochia (kochia; [3]) | Plant response rating, Kochia (kochia; [5]) | Kochia plant response rating (kochia; [6]) | Plant response rating, Ragweed (ragweed; [3]) | Plant response rating, Ragweed (ragweed; [5]) | Ragweed plant response rating (ragweed; [6]) | Plant response rating, Ryegrass, Italian (ryegrass, Italian; [3]) | Plant response rating, Ryegrass, Italian (ryegrass, Italian; [5]) | Ryegrass, Italian plant response rating (ryegrass, Italian; [6]) | Plant response rating, Foxtail, Giant (giant foxtail; [3]) | Plant response rating, Foxtail, Giant (giant foxtail; [4]) | Plant response rating, Foxtail, Giant (giant foxtail; [5]) | Foxtail, Giant plant response rating (giant foxtail; [6]) | Plant response rating, Pigweed (pigweed; [3]) | Plant response rating, Pigweed (pigweed; [5]) | Pigweed plant response rating (pigweed; [6]) | also measured
CCN1CC(c2ccc(C(F)(F)F)cc2)C(C(=O)Nc2ccccc2F)C1=O (stereo not drawn) [Compound 335] | 20 | 60 | 0 | 50 | 0 | 40 | 60 | 0 | 0 | 0 | 0 | 0 | 0 | 70 | 90 | 70 | 90 | 0 | 0 | 30 | Plant response rating, Kochia (kochia; [4]): 0; Plant response rating, Ragweed (ragweed; [4]): 0; Plant response rating, Ryegrass, Italian (ryegrass, Italian; [4]): 0; Plant response rating, Pigweed (pigweed; [4]): 0; Plant response rating, Wheat (wheat; [7]): 0; Plant response rating, Wheat (wheat; [8]): 20; Plant response rating, Corn (corn; [7]): 0; Plant response rating, Corn (corn; [8]): 0; Plant response rating, Blackgrass (blackgrass; [7]): 0; Plant response rating, Blackgrass (blackgrass; [8]): 20; Plant response rating, Galium (galium; [7]): 0; Plant response rating, Galium (galium; [8]): 0; Plant response rating, Rice (rice): 0; Plant response rating, Sedge, Umbrella (sedge, umbrella): 0; Plant response rating, Ducksalad (ducksalad): 65; Plant response rating, Barnyardgrass (barnyardgrass [2]): 0
CCN1CC(c2ccc(C(F)(F)F)cc2)C(C(=O)Nc2cccc(F)c2F)C1=O (stereo not drawn) [Compound 336] | 30 | 60 | 50 | 60 | 0 | 0 | 60 | 0 | 0 | 0 | 0 | 0 | 20 | 70 | 70 | 80 | 90 | 0 | 0 | 20 | Plant response rating, Kochia (kochia; [4]): 0; Plant response rating, Ragweed (ragweed; [4]): 0; Plant response rating, Ryegrass, Italian (ryegrass, Italian; [4]): 0; Plant response rating, Pigweed (pigweed; [4]): 0; Plant response rating, Wheat (wheat; [7]): 0; Plant response rating, Wheat (wheat; [8]): 0; Plant response rating, Corn (corn; [7]): 0; Plant response rating, Corn (corn; [8]): 0; Plant response rating, Blackgrass (blackgrass; [7]): 0; Plant response rating, Blackgrass (blackgrass; [8]): 0; Plant response rating, Galium (galium; [7]): 0; Plant response rating, Galium (galium; [8]): 0; Plant response rating, Rice (rice): 0; Plant response rating, Sedge, Umbrella (sedge, umbrella): 0; Plant response rating, Ducksalad (ducksalad): 60; Plant response rating, Barnyardgrass (barnyardgrass [2]): 50
O=C1NCC(c2cccc(-n3cccn3)c2)C1C(=O)Nc1ccccc1C(F)(F)F (stereo not drawn) [Compound 338] | 0 | 30 | 0 | 20 | 0 | 0 | 20 | 0 | 0 | 0 | 0 | 0 | 0 | 20 | 60 | 30 | 80 | 0 | 0 | 0 | Plant response rating, Wheat (wheat; [7]): 0; Plant response rating, Corn (corn; [7]): 0; Plant response rating, Corn (corn; [8]): 0; Plant response rating, Blackgrass (blackgrass; [7]): 0; Plant response rating, Blackgrass (blackgrass; [8]): 0; Plant response rating, Galium (galium; [7]): 0; Plant response rating, Rice (rice): 0; Plant response rating, Sedge, Umbrella (sedge, umbrella): 0; Plant response rating, Ducksalad (ducksalad): 0; Plant response rating, Barnyardgrass (barnyardgrass [2]): 0
O=C1NCC(c2ccc(Br)c(Br)c2)C1C(=O)Nc1ccccc1F (stereo not drawn) [Compound 339] | 40 | 60 | 60 | 80 | 0 | 0 | 0 | 0 | 0 | 0 | 0 | 0 | 20 | 60 | 60 | 70 | 80 | 0 | 0 | 0 | Plant response rating, Wheat (wheat; [7]): 0; Plant response rating, Corn (corn; [7]): 0; Plant response rating, Corn (corn; [8]): 0; Plant response rating, Blackgrass (blackgrass; [7]): 0; Plant response rating, Blackgrass (blackgrass; [8]): 0; Plant response rating, Galium (galium; [7]): 0; Plant response rating, Rice (rice): 0; Plant response rating, Sedge, Umbrella (sedge, umbrella): 0; Plant response rating, Ducksalad (ducksalad): 65; Plant response rating, Barnyardgrass (barnyardgrass [2]): 40
